Reference: ChEMBL document CHEMBL5365517, “Molecular Design of Cyclic Peptides with Cell Membrane Permeability and Development of MDMX-p53 Inhibitor” (ACS Med Chem Lett, 2023)
Starred links: 1 amine or outer side, 2 acyl side, 3 side chain; linkers in the order of their positions; H or OH if unused. Non-standard residues stand in square brackets, D forms with d. Residues, ends and D or L forms follow the SMILES beside them. Ala(4-thiazolyl) = N[C@@H](Cc1cscn1)C(=O)O; Phe(4-Cl) = N[C@@H](Cc1ccc(Cl)cc1)C(=O)O; X1 = CCC(CC)C[C@@H](C(=O)[*:2])N(C)[*:1]; Phe(4-F) = N[C@@H](Cc1ccc(F)cc1)C(=O)O; NMeF = CN[C@@H](Cc1ccccc1)C(=O)O; NMeL = CN[C@@H](CC(C)C)C(=O)O; Ahp(2) = CCCCC[C@H](N)C(=O)O; Tle = CC(C)(C)[C@H](N)C(=O)O; hSer = N[C@@H](CCO)C(=O)O; NMeA = CN[C@@H](C)C(=O)O; dNMeA = CN[C@H](C)C(=O)O

How the values were obtained:
[1] = Apparent permeability across apical to basolateral side in MDCK-II cells at 10 uM incubated for 2 hrs by LC/MS/MS analysis; assay type: ADME, cell-based, Canis lupus familiaris; details: dog
Protein Mdm4 = target: T1, Protein Mdm4 (Homo sapiens, UniProt O15151); test: Inhibition of N-terminal biotin-his-tagged MDMX (24 to 108 residues)(unknown origin) binding to p53 incubated for 1 hr by Alphascreen assay
T1 sequence (O15151 whole entry): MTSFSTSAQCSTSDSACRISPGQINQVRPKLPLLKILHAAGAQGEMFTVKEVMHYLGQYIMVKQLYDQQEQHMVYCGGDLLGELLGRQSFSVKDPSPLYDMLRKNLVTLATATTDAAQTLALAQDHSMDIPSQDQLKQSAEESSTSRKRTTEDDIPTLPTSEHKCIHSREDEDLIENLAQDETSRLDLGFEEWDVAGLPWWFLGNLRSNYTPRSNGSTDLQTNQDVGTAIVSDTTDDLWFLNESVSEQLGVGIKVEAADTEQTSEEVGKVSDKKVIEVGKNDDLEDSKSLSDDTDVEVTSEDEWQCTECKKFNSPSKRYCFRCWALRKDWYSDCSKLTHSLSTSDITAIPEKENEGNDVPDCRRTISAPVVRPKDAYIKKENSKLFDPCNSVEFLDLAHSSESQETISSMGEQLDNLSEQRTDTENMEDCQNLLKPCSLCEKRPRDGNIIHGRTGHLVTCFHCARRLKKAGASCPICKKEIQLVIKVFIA

Row | Papp A→B at 2 h, 10 µM [1] | IC50 (Protein Mdm4) | SMILES
1 | 0.8 ×10⁻⁶ cm/s | 70 nM | CCCCC[C@@H]1NC(=O)[C@H](CC(C)C)N(C)C(=O)[C@H](Cc2ccc(F)cc2)NC(=O)[C@H](C)N(C)C(=O)[C@@H](C)N(C)C(=O)[C@H](Cc2cscn2)NC(=O)[C@H](C)N(C)C(=O)[C@H](CCOC)NC(=O)[C@H]2CCCN2C(=O)[C@H](CC(CC)CC)N(C)C1=O (cyclo([Ahp(2)][X1][dP][hSer](Me)[NMeA][Ala(4-thiazolyl)][dNMeA][NMeA][Phe(4-F)][NMeL]))
2 | 0.07 ×10⁻⁶ cm/s | 30 nM | COCC[C@@H]1NC(=O)[C@H]2CCCN2C(=O)[C@H](Cc2ccccc2)N(C)C(=O)[C@H](Cc2ccc(Cl)cc2)NC(=O)[C@H](C(C)(C)C)NC(=O)[C@H](Cc2ccc(F)cc2)NC(=O)[C@H](C)N(C)C(=O)[C@@H](C)N(C)C(=O)[C@H](Cc2cscn2)NC(=O)[C@H](C)N(C)C1=O (cyclo([Ala(4-thiazolyl)][dNMeA][NMeA][Phe(4-F)][Tle][Phe(4-Cl)][NMeF][dP][hSer](Me)[NMeA]))
